# Experimental data from patent US20050124622A1, “Compounds and methods for the treatment of pain” (priority 1999, published 2005).
# Target: T1, NMDA receptor glycine site (Rattus norvegicus, UniProt P35439)
# T1 construct: brain membranes bearing the receptor; tissue Analytical Biological Services Inc; host or cells: rat brain (cerebral cortex and hippocampus) membranes
# Test: Test A: Inhibition of binding of [3H]-MDL105,519 to brain membranes
# Conditions: not given
# Description: Test A: Inhibition of Binding of [^3H]-MDL105,519:
# Binding of compounds to the NMDA receptor glycine site may be assessed by measuring the ability of test compounds to inhibit the binding of tritiated MDL105,519 to brain membranes bearing the receptor.
# Briefly, fresh brain tissue including cerebral cortex and hippocampus from male Sprague Dawley rats was homogenized in 0.32 M sucrose and centrifuged at low speed to separate cellular membranes from other cellular components. The membranes were then washed 3 times using deionized water, followed by treatment with 0.04% Triton X-100. Finally, membranes were washed six times in 50 mM Tris citrate buffer, pH 7.4, and frozen at −80° C. until use.
# [^3H]MDL105,519 (72 Ci/mmol) was purchased from Amersham. Cold MDL105,519 was purchased from Sigma/RBI. […] On the day of the experiment, brain membranes were thawed at room temperature and suspended in 50 mM tris acetate buffer, pH 7.4 (“TAB”). Seventy-five micro grams per milliliter protein (by using the BioRad dye) were used for competition binding. The experiments were carried out using 96-well plates. […] Non specific binding was determined by using 100 μM of unlabeled MDL105,519. […] After incubation, unbound [^3H]MDL105,519 was removed by filtration onto GF/B Unifilter plates using a Packard harvester. Filters were washed four times with ice cold TAB (total of 1.2 mL buffer). The plates were dried overnight at room temperature and bound radioactivity was measured on a Packard TopCount after the addition of 45 μL per well of the MICROSCINT O.
# Human Brain Membranes: Human brain membranes were obtained from Analytical Biological Services Inc., and assays were performed as described for rat membranes.
# Data analysis: Data was analyzed using a Microsoft Excel spreadsheet and GraphPad Prizm software and potency of compounds is expressed as the Ki (nM).
row,Ki,Compound
1,91 nM,O=C(NN=Cc1ccc(Cn2nc(O)c3[nH]c4cc(Cl)ccc4c(=O)c3c2=O)cc1)c1ccccc1 [Ex. 10]
2,124 nM,CC(C)(C)OC(=O)NN=Cc1ccc(Cn2nc(O)c3[nH]c4cc(Cl)ccc4c(=O)c3c2=O)cc1 [Ex. 8]
3,173 nM,"O=Cc1ccc(Cn2nc(O)c3[nH]c4cc(Cl)ccc4c(=O)c3c2=O)cc1 [Ex. 7, 4-[(7-Chloro-4-hydroxy-1,10-dioxo-2.5-dihydropyridazino[4,5-b]quinolin-2-yl)methyl]benzaldehyde]"
4,159 nM,"O=c1c2ccc(Cl)cc2[nH]c2c(O)nn(Cc3ccc(C=NNc4ccccn4)cc3)c(=O)c12 [Ex. 9, 2-{[4-[2-Aza-2-(2-pyridylamino)vinyl]phenyl}methyl)-7-chloro-4-hydroxy-2,5-dihydropyridazino[4,5-b]quinoline-1,10-dione]"
5,1150 nM,"Cc1ncc(CO)c(Cn2nc(O)c3[nH]c4cc(Cl)ccc4c(=O)c3c2=O)c1O [Ex. 3, 7-Chloro-4-hydroxy-2-[3-hydroxy-5(hydroxymethyl)-2-methyl(4-pyridyl)]methyl-1,2,5,10-tetrahydropyridazino[4,5-b]quinoline-1,10-dione Methanesulfonate]"
6,95.8 nM,"O=c1c2ccc(Cl)cc2[nH]c2c(O)nn(Cc3ccc(-c4nnco4)cc3)c(=O)c12 [Ex. 1, 7-Chloro-4-hydroxy-2-(4-[1,3,4]oxadiazol-2-yl-benzyl)-1,2,5,10-tetrahydropyridazino[4,5-b]quinoline-1,10-dione]"
7,449 nM,"O=c1c2ccc(Cl)cc2[nH]c2c(O)nn(CC3CCCO3)c(=O)c12 (racemic) [Ex. 4, 7-Chloro-4-hydroxy-2-(tetrahydro-furan-2-ylmethyl)-1,2,5,10-tetrahydropyridazino[4,5-b]quinoline-1,10-dione]"
8,227 nM,"Cc1cc(C)c(S(=O)(=O)NN=Cc2ccc(Cn3nc(O)c4[nH]c5cc(Cl)ccc5c(=O)c4c3=O)cc2)c(C)c1 [Ex. 11, 2-{[4-(2-Aza-2-{[(2,4,6-trimethylphenyl)sulfonyl]amino}vinyl)phenyl]methyl}-7-chloro-4-hydroxy-2,5-dihydropyridazino[4,5-b]quinoline-1,10-dione]"

# Same assay, conditions: inhibition of 1.2 nM [3H]MDL105,519 binding to brain membranes, 30 minutes at room temperature
row,Compound,Ki
1,"O=c1c2ccc(Cl)cc2[nH]c2c(O)nn(Cc3cccc(-c4nnn[nH]4)c3)c(=O)c12 [Ex. 2, 7-Chloro-4-hydroxy-2-[3-(1H-tetrazol-5-yl)-benzyl]-1,2,5,10-tetrahydropyridazino[4.5-b]quinoline-1,10-dione.]",42.7 nM
2,"COc1ccc(-c2nnc(Cn3nc(O)c4[nH]c5cc(Cl)ccc5c(=O)c4c3=O)o2)cc1 [Ex. 5, 7-Chloro-4-hydroxy-2-[5-(4-methoxy-phenyl)-[1,3,4]oxadiazol-2-ylmethyl]-1,2,5,5,10-tetrahydropyridazino[4,5-b]quinoline-1,10-dione]",146 nM
